Data on 2 compounds can be found in paper PMC3472544, “Glycosaminoglycan analogs as a novel anti-inflammatory strategy” (Frontiers in Immunology, 2012).

Entries after “also recorded” stand apart in the source; their conditions may differ.

The target in test [1] is T1, CCR1 (Homo sapiens, UniProt P13501).
T1 construct: expressed in transfected cells; host or cells: CHO
T1 sequence (P13501 24-91): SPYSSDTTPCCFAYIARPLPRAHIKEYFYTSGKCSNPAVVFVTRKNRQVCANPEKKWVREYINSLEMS
In words: Equilibrium competition receptor binding assay (SPA), [125I]-CCL5 on CHO/CCR1 membranes. The settings on record: relative to Molecule 1. How it is done: (§1) The assays were carried out on membranes from CHO transfectants expressing CCR1 or CCR5, as described previously (Severin et al., [2010]). Briefly, serial dilutions of the compounds were prepared in binding buffer (50 mM TrisHCl, pH 7.2, containing 1 mM CaCl2, 5 mM MgCl2, and 0.5% BSA). Equal volumes of membrane preparation at 80 μg/ml and scintillation proximity assay (SPA) beads were mixed before adding them to a 96 well filter plate, giving a final membrane concentration in the assay of 20 μg/ml. ^125I labeled chemokines were dissolved in binding buffer at a concentration of 0.4 nM. The assay was started by the addition of 25 μL [^125I]-CCL5 to give a concentration of 0.1 nM, in a final assay volume of 100 μL. The plates were incubated for 4 h. Radioactivity was counted with a beta counter for 1 min/well and the data analyzed using Graphpad Prism software. The radioligand was stored at −20°C and was used until the cpm of bound chemokine was ≥ 300 cpm.

In test [2] the target is T2, CCR1 (Homo sapiens).
T2 construct: expressed in transfected cells; host or cells: CHO
Described as above. The settings on record: [125I]-CCL5 0.1 nM, CHO/CCR1 membranes, SPA; read-out: IC50 for the inhibition of CCL5 binding to CCR1. How it is done: as §1

For test [3], the system named is CCL5-induced cellular recruitment into the peritoneal cavity. Put plainly: CCL5-induced peritoneal cellular recruitment. In kind it is in vivo, mouse. The settings on record: CCL5 binders administered 30 min prior to CCL5 (Figure 4A, B).
The test system of test [4] is leukocyte recruitment into the synovial (knee) cavity. In words: Antigen-induced arthritis (AIA) model, mBSA. It counts as in vivo, mice. The settings on record: 50 μg s.c. immediately after mBSA; cells counted at 24 h. As for the experimental part: Induction of disease was performed by injection of 10 μg methylated bovine serum albumin (mBSA) as a 10 μL injection into the synovial cavity. Test compounds, at a total dose of 50 μg were injected in a total volume of 200 μL subcutaneously immediately after mBSA administration. Group sizes were 4–6 animals. Total leukocytes (A), neutrophils (B), and mononuclear cells (C) in the synovial cavity were enumerated 24 h after mBSA injection (Sachs et al., [2011]).
Figure 6 Inhibition of antigen induced arthritis. An injection of mBSA into the synovial cavity was used to induce disease. 50 μg of the inhibitors were administered s.c. immediately after the mBSA injection, and the cells in the synovial cavity were enumerated 24 h later. (A) Total cells; (B) […]; (C) mononuclear cells. ^*P < 0.05.

Test [5] concerns thioglycollate-induced cellular recruitment into the peritoneal cavity. In words: Thioglycollate-induced peritoneal cellular recruitment. In kind it is in vivo, C3H/Hen mice. The settings on record: thioglycollate i.p.; compound i.p. 30 min before and 24 h later; cells counted at 48 h (Figure 4C, D). As for the experimental part: CCL5-induced peritoneal recruitment was performed as described (Johnson et al., [2004]). Thioglycollate-induced cellular recruitment was mediated by the administration of 40 mL/kg of 3% thioglycollate i.p. in 7- to 8-week-old female C3H/Hen mice (JANVIER). Sham mice were injected with 40 mL/kg of NaCl (0.9%, LPS free). Saline (vehicle, control group) or Maltohexaose Sulfate at doses ranging from 1 to 0.01 mg/kg diluted in a volume ratio of 10 mL/kg and were administered i.p. 30 min before the thioglycollate stimulus, and 24 h later. An additional group of mice was injected with a single dose of 3 mg/kg dexamethasone 1 h before challenge as a reference control. Mice were sacrificed 48 h post-thioglycollate injection, the peritoneal cavity was washed twice with 5 mL of […] EDTA solution in PDB, pH 7.4. The peritoneal lavage fluid was centrifuged and resuspended in 1 mL of the solution and recruited cells were counted with a cell counter (Beckman-Coulter, ACT5Diff AD32097).
Figure 4 Inhibition of peritoneal cellular recruitment. Cellular recruitment into the peritoneal cavity was induced by CCL5 (A) and (B) and inhibited by different doses of CCL5 binders administered 30 min prior to the CCL5 administration. […]

For test [6], the target named is T3, CCL5 binding to heparin (Homo sapiens, UniProt P13501).
T3 sequence (P13501 24-91): T1 sequence (P13501 24-91)
Put plainly: Immobilized heparin competition binding assay ([125I]-CCL5 on heparin-Sepharose beads). The settings on record: [125I]-CCL5 0.05 nM, 4 h, read-out: IC50 for the inhibition of CCL5 binding to heparin. How it is done: Competition experiments were performed as described elsewhere (Severin et al., [2010]). Briefly, heparin-Sepharose beads (Sepharose beads or binding buffer as a background control) and increasing amounts of antagonist were added to each well of a 96 well filter plate. [^125I]-CCL5, was added last, to reach a final concentration of 0.05 nM. The plates were incubated on a shaker at room temperature for 4 h. Each experiment was performed in triplicate, and the results are given as the mean of the three assays.

The subject of test [7] is paw thickness after SRBC challenge. In words: Delayed-type hypersensitivity (DTH) model, SRBC. It counts as in vivo, BALB/c mice. As for the experimental part: Female BALB/c mice were immunized with 2 × 10^6 sheep red blood cells (SRBC) by subcutaneous route (s.c.) at the base of the tail. Five days later mice were challenged with an s.c. injection of 2 × 10^6 SRBC into the softpaw of the left hindpaw. The paw thickness was measured 21 h later and the difference calculated based on values obtained before challenge. MHxS, NisS, and StachS were injected s.c. at a dose of 10 mg/kg, 30 min before and 8 h after challenge. Vehicle was 0.02% BSA diluted in PBS. The reference compound, dexamethasone, was diluted in saline and administered by oral gavage 30 min before challenge. Group sizes were 6 for sham and 8 for all other groups.
Figure 5 Inhibition of delayed-type hypersensitivity. Immunization was performed by s.c. administration of SRBC, followed by a challenge in the hindpaw 5 days later. The persulfated oligosaccharides (10 mg/kg) were administered 30 min prior and 8 h after the challenge. Dexamethasone was used as a positive control, and paw thickness was measured 21 h following the challenge. The statistical differences vs. the control group (mice challenged with SRBC and treated with vehicle for the compounds 0.02% BSA diluted in PBS) are shown whenever present and indicated by ^*P <0.05>; ^***P < 0.001. TEXT PRINTED IN THE PICTURE: dexamethasone: 47% *** | MHxS: 39% *** | NisS: 20% * | StachS: 41% ***

The test system of test [8] is citrated plasma from healthy human blood donors. Put plainly: Anti-coagulation assay: Activated Partial Thromboplastin Time (APTT). How it is done:
Activated Partial Thromboplastin Time (APTT) assays were performed by GlycoMar. 10 mg/ml stock solutions of NisS, StachS, and MHxS, were prepared using dH2O and stored at −20°C until use. Samples were tested at 1 mg/ml. All further dilutions were in dH2O. Prior to each assay, a calibration curve of heparin ranging from 0 to 10 IU/ml was prepared using 5th International Standard Heparin. (GlycoMar ID:92, batch 97/578, Expiry 21SEP10). Fresh human blood from healthy human blood donors was collected into S-Monovette Coagulation tubes from Sarstedt. Nine parts of freshly drawn venous blood were collected into one part trisodium citrate (0.106 M). Plasma was obtained by centrifugation at 1500 × g for 10 min. Each of the carbohydrate samples was diluted and tested at 1 mg/ml in the first instance. MHxS was subsequently tested at 0.1 mg/ml to be within the time frame of the standard curve. The APTT assay was run on an ACL 9000 Coagulation Analyzer. The coagulation time of HemosIL Normal Control (cat no. 0020003110) was checked. Samples, standards and controls were mixed 1:10 with citrated plasma in a test tube, loaded into the ACL 9000 carousel and analyzed using the extended APTT run program.

In general, IC50 refers to the concentration that gives 50% inhibition. Take `O=C(CCCCCCCCCCNS(=O)(=O)c1ccc(O)c(C(=O)O)c1)Nc1cc(C(=O)O)c(O)c(S(=O)(=O)O)c1` [Molecule 3, 5-[(11-{[(3-carboxy-4hydroxyphenyl)sulfonyl]amino}undecanoyl)amino]-2-hydroxy-3-sulfobenzoic acid]: in test [1], the “tighter interaction than Molecule 1 in the CCR1 binding assay” value is 3 fold. The IC50 in test [2] was found to be 2500 nM. Further, the “cell recruitment to the peritoneum” value in test [3] was “enhancement of cell recruitment; also recorded: no inhibition of recruitment, rather an enhancement at the highest dose”.

With persulfated MHx [MHxS], in test [4], the “mononuclear cell recruitment into the knee cavity” value is on record as “statistically significant reduction” and the “neutrophil recruitment into the knee cavity” value was “statistically significant reduction”. The “cell recruitment to the peritoneal cavity” value in test [5] is recorded as “enhanced recruitment, albeit moderately”. In addition, the IC50 in test [6] was 1270 ± 670 nM. For the same compound, the “reduction of paw thickness compared with dexamethasone” value in test [7] (10 mg/kg s.c. at −30 min and +8 h) is on record as “comparable effect”. Besides, the “inhibition of paw thickness, dose-response” value in test [7] (0.1, 1 and 10 mg/kg at −30 min and +8 h post-challenge, data not shown) was “statistically significant inhibitions were shown only for the highest dose”. For the same compound, the “inhibition of paw swelling” value in test [7] (oligosaccharides 10 mg/kg s.c. at −30 min and +8 h, dexamethasone by oral gavage 30 min before challenge, paw thickness at 21 h) was 39%. Also, the “Anticoagulant activity (heparin-equivalent)” value in test [8] (calibrated against heparin standard curve, samples at 1 mg/ml (MHxS 0.1 mg/ml)) is 11.87 ± 3.07 IU/mg. Besides, the “anticoagulant potency reduced compared to heparin” value in test [8] (relative to heparin) worked out at 12 fold.
